Measured values: patent US9920295B2, “Bioreactor for isolation of rare cells and methods of use” (The Trustees of the University of Pennsylvania, priority 2012, dated 2018)

What was measured:
NMM-IIA pS1943 = assay: pS1943 of NMM-IIA by phospho-specific flow cytometry; format: cell-based, human; conditions: under cytokine stimulation (SCF and Tpo)
Procedure: Cells were fixed with 4% paraformaldehyde in PBS for 10 min, washed with PBS and resuspended in 0.1% saponin in HBSS (staining medium). The samples were then stained with antibodies against cytoplasmic antigens, including NMM-IIA (Sigma), NMM-IIB, phospho-NMM-IIA and caspase-3 (all from Cell Signaling Technology) for 30 min at room temperature. In some cases, cells were concurrently stained with PE anti-CD34 or anti-human CD38 for subpopulation analysis. Cells were then washed and stained with anti-rabbit or mouse secondary antibodies conjugated with Alexa 647 (Invitrogen) for 30 min, followed by analysis on FACSCalibur.

CD41+ and CD41− cells = assay: Label-free MS quantitation of cytoskeletal proteome; format: cell-based, human
Procedure: BM CD34^+-derived cells at day 7 were stained with CD41-FITC at room temperature for 1 h, followed by with Annexin-V-PE (BD Biosciences) in the Annexin-V staining medium for 15 min. Cells were then resuspended in 2% FBS/PBS with 7-AAD. Viable HSC-containing cell populations and differentiated MK lineages at day 7 in culture were separated on the basis of CD41 surface expression by cell sorting performed on a FACS Vantage machine (Becton Dickinson). Dead cells stained with 7-AAD and Annexin-V were excluded from sorting. Sorted cells were directly processed for mass spectrometry (MS) analyses (FIG. 5).
Samples were prepared for mass spectrometry by gel-free (Wiśniewski et al., 2009, Nat Methods, 6:359-362) or in-gel digestion methods. […] Label-free relative peptide quantitation was performed on proportional peak fingerprints (ProPF) of proteins with in-house software coded in Mathematica (Wolfram Research). […] Proteomes from primary MKs were analyzed using this unique method and a selected group of proteins were validated by antibodies (FIG. 13D). COS cells transfected with GFP-NMM-IIA and siRNA […] knockdown were also analyzed by the method, and show increased NMM-IIA expression by 17-fold and partial knockdown (˜40%) of NMM-IIA compared with cells transfected with GFP and scrambled siRNA. There was minimal perturbation to other proteins detected.

With `Cc1ccc2c(c1)C(=O)C1(O)CCN(c3ccccc3)C1=N2` (racemic) [blebbistatin, (±)-blebbistatin] as the compound, how does the “effect on pS1943 level” value (NMM-IIA pS1943) read?
Its value is “inhibits the reduction of pS1943”.

And the detected proteins up-regulated (CD41+ and CD41− cells; CD41+ cells, treated samples)?
The detected proteins up-regulated was 75%.

What about the “indicated proteins with increased expression” value (CD41+ and CD41− cells; CD41− cells, 3 d treatment) of the same compound?
The value was 20%.
